Assay results as given in patent publication US9260439B2, “Dihydropyrrolopyrimidine derivatives” (PFIZER INC., priority 2014, dated 2016).
Where a name gives a salt, the structure may show the parent alone.

Molecular target: truncated PI3Kα (p110α/iSH2 p85α) (Homo sapiens (Human), UniProt P42336)
Experiment: PI3KA_Act fluorescence polarization kinase assay (Ki)
Type: biochemical
Conditions: 1 mM ATP
Outline: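 p110α/iSH2 p85α (0.5 nM) was reacted with 30 μM sonicated PIP2 in 50 mM HEPES pH 7.4, 150 mM NaCl, 5 mM MgCl2, 1 mM DTT and 0.05% CHAPS for 30 min at room temperature, then stopped with EDTA. PIP3 was detected by fluorescence polarization (GST-Grp1 PH domain/TAMRA-PIP3), and Ki came from a Morrison tight-binding fit.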

Chain of truncated PI3Kα (p110α/iSH2 p85α) (P42336 whole entry, the tested form may be a part): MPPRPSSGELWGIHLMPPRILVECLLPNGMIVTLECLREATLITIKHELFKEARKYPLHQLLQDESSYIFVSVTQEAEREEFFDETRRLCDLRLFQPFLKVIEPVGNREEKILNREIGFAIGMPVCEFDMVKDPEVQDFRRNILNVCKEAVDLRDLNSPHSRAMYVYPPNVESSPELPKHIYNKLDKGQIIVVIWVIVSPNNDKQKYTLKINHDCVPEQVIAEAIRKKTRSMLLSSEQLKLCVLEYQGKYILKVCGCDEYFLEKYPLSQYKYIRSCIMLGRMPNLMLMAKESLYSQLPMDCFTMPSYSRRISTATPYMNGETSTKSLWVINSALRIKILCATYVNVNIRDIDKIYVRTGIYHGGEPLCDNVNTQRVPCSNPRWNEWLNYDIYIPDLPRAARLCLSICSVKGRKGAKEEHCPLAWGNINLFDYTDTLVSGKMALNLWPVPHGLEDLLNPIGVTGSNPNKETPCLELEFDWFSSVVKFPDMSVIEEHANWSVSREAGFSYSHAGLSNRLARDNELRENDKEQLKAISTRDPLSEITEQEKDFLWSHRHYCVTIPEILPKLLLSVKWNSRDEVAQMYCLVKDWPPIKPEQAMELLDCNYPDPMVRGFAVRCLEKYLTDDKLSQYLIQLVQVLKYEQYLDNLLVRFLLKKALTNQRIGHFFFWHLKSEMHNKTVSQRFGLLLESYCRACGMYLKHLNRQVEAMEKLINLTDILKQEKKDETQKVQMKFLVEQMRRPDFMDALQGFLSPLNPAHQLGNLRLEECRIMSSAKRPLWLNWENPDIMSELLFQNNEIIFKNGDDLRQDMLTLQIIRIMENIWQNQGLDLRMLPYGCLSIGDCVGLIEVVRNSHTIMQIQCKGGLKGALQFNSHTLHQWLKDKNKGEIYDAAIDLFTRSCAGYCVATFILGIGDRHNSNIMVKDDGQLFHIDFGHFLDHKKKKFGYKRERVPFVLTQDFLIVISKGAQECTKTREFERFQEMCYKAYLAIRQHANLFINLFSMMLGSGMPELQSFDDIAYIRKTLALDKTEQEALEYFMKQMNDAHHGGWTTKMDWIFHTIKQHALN

Row | SMILES | PI3KA_Act Ki | Ki
1 | C[C@H]1COCCN1c1nc(-c2cnc(N)nc2)c2c(n1)N([C@@]1(C)CCN(C(=O)[C@H]3CCOC3)C1)CC2 [Example 500, [(3S)-3-{4-(2-aminopyrimidin-5-yl)-2-[(3S)-3-methylmorpholin-4-yl]-5,6-dihydro-7H-pyrrolo[2,3-d]pyrimidin-7-yl}-3-methylpyrrolidin-1-yl][(3S)-tetrahydrofuran-3-yl]methanone] | 0.064 nM | –
2 | C[C@H]1COCCN1c1nc(-c2cnc(N)nc2)c2c(n1)N([C@@]1(C)CCN(C(=O)[C@H]3CCCO3)C1)CC2 [Example 501, [(3S)-3-{4-(2-aminopyrimidin-5-yl)-2-[(3S)-3-methylmorpholin-4-yl]-5,6-dihydro-7H-pyrrolo[2,3-d]pyrimidin-7-yl}-3-methylpyrrolidin-1-yl][(2R)-tetrahydrofuran-2-yl]methanone] | 0.035 nM | –
3 | CNC(=N)N1CC[C@](C)(N2CCc3c(-c4cnc(N)nc4)nc(N4CCOC[C@@H]4C)nc32)C1 [Example 504, (3S)-3-{4-(2-aminopyrimidin-5-yl)-2-[(3S)-3-methylmorpholin-4-yl]-5,6-dihydro-7H-pyrrolo[2,3-d]pyrimidin-7-yl}-N,3-dimethylpyrrolidine-1-carboximidamide] | 0.109 nM | –
4 | CNC(=O)N1CC[C@@](C)(N2CCc3c(-c4cnc(N)nc4)nc(N4CCOC[C@@H]4C)nc32)C1 [Example 505, (3R)-3-{4-(2-aminopyrimidin-5-yl)-2-[(3S)-3-methylmorpholin-4-yl]-5,6-dihydro-7H-pyrrolo[2,3-d]pyrimidin-7-yl}-N,3-dimethylpyrrolidine-1-carboxamide] | 0.139 nM | –
5 | CNC(=O)N1CC[C@](C)(N2CCc3c(-c4cnc(N)nc4)nc(N4CCOC[C@@H]4C)nc32)C1 [Example 506, (3S)-3-{4-(2-aminopyrimidin-5-yl)-2-[(3S)-3-methylmorpholin-4-yl]-5,6-dihydro-7H-pyrrolo[2,3-d]pyrimidin-7-yl}-N,3-dimethylpyrrolidine-1-carboxamide] | 0.061 nM | –
6 | CCNC(=O)N1CC[C@](C)(N2CCc3c(-c4cnc(N)nc4)nc(N4CCOCC4)nc32)C1 [Example 507, (3S)-3-[4-(2-aminopyrimidin-5-yl)-2-(morpholin-4-yl)-5,6-dihydro-7H-pyrrolo[2,3-d]pyrimidin-7-yl]-N-ethyl-3-methylpyrrolidine-1-carboxamide] | – | 0.082 nM
7 | COC(=O)N1CC[C@](C)(N2CCc3c(-c4cnc(N)nc4)nc(N4CCOC[C@@H]4C)nc32)C1 [Example 508, methyl (3S)-3-{4-(2-aminopyrimidin-5-yl)-2-[(3S)-3-methylmorpholin-4-yl]-5,6-dihydro-7H-pyrrolo[2,3-d]pyrimidin-7-yl}-3-methylpyrrolidine-1-carboxylate] | <0.018 nM | –
8 | COC(=O)N1CC[C@@](C)(N2CCc3c(-c4cnc(N)nc4)nc(N4CCOC[C@@H]4C)nc32)C1 [Example 509, methyl (3R)-3-{4-(2-aminopyrimidin-5-yl)-2-[(3S)-3-methylmorpholin-4-yl]-5,6-dihydro-7H-pyrrolo[2,3-d]pyrimidin-7-yl}-3-methylpyrrolidine-1-carboxylate] | 0.135 nM | –
9 | C[C@@H]1CN(C(=O)OC(C)(C)C)C[C@@]1(C)N1CCc2c(-c3cnc(N)nc3)nc(N3CCOC[C@@H]3C)nc21 [Example 510, tert-butyl (3S,4R)-3-{4-(2-aminopyrimidin-5-yl)-2-[(3S)-3-methylmorpholin-4-yl]-5,6-dihydro-7H-pyrrolo[2,3-d]pyrimidin-7-yl}-3,4-dimethylpyrrolidine-1-carboxylate] | <0.018 nM | –
10 | C[C@H]1COCCN1c1nc(-c2cnc(N)nc2)c2c(n1)N([C@@]1(C)CN(C(=O)OC(C)(C)C)C[C@@H]1C)CC2 [Example 511, tert-butyl (3R,4S)-3-{4-(2-aminopyrimidin-5-yl)-2-[(3S)-3-methylmorpholin-4-yl]-5,6-dihydro-7H-pyrrolo[2,3-d]pyrimidin-7-yl}-3,4-dimethylpyrrolidine-1-carboxylate] | 0.915 nM | –
11 | C[C@H]1COCCN1c1nc(-c2cnc(N)nc2)c2c(n1)N([C@@]1(C)CCN(C(=O)OC(C)(C)C)C1)CC2 [Example 512, tert-butyl (3S)-3-{4-(2-aminopyrimidin-5-yl)-2-[(3S)-3-methylmorpholin-4-yl]-5,6-dihydro-7H-pyrrolo[2,3-d]pyrimidin-7-yl}-3-methylpyrrolidine-1-carboxylate] | <0.018 nM | –
12 | C[C@H]1COCCN1c1nc(-c2cnc(N)nc2)c2c(n1)N([C@@]1(C)CCN(C)C1)CC2 [Example 513, 5-{7-[(3S)-1,3-dimethylpyrrolidin-3-yl]-2-[(3S)-3-methylmorpholin-4-yl]-6,7-dihydro-5H-pyrrolo[2,3-d]pyrimidin-4-yl}pyrimidin-2-amine] | 0.418 nM | –
13 | C[C@H]1COCCN1c1nc(-c2cnc(N)nc2)c2c(n1)N(C1(C)CCNCC1)CC2.Cl [Example 516, 5-{2-[(3S)-3-methylmorpholin-4-yl]-7-(4-methylpiperidin-4-yl)-6,7-dihydro-5H-pyrrolo[2,3-d]pyrimidin-4-yl}pyrimidin-2-amine hydrochloride] | 0.346 nM | –
14 | C[C@H]1COCCN1c1nc(-c2cnc(N)nc2)c2c(n1)N(C1(C)CCN(C(=O)OC(C)(C)C)CC1)CC2 [Example 519, tert-butyl 4-{4-(2-aminopyrimidin-5-yl)-2-[(3S)-3-methylmorpholin-4-yl]-5,6-dihydro-7H-pyrrolo[2,3-d]pyrimidin-7-yl}-4-methylpiperidine-1-carboxylate] | 0.036 nM | –
15 | C[C@H]1COCCN1c1nc(-c2cnc(N)nc2)c2c(n1)N(C1(C)CCCN(C(=O)OC(C)(C)C)C1)CC2 (stereo partly drawn) [Example 520, tert-butyl 3-{4-(2-aminopyrimidin-5-yl)-2-[(3S)-3-methylmorpholin-4-yl]-5,6-dihydro-7H-pyrrolo[2,3-d]pyrimidin-7-yl}-3-methylpiperidine-1-carboxylate] | 0.663 nM | –
16 | C[C@H]1COCCN1c1nc(-c2cnc(N)nc2)c2c(n1)N([C@H]1[C@@H]3CN(C(=O)OC(C)(C)C)C[C@@H]31)CC2 [Example 521, tert-butyl (1R,5S,6s)-6-{4-(2-aminopyrimidin-5-yl)-2-[(3S)-3-methylmorpholin-4-yl]-5,6-dihydro-7H-pyrrolo[2,3-d]pyrimidin-7-yl}-3-azabicyclo[3.1.0]hexane-3-carboxylate] | 0.170 nM | –
17 | C[C@H]1COCCN1c1nc(-c2cnc(N)nc2)c2c(n1)N([C@H]1[C@@H]3CNC[C@@H]31)CC2.Cl [Example 522, 5-{7-[(1R,5S,6s)-3-azabicyclo[3.1.0]hex-6-yl]-2-[(3S)-3-methylmorpholin-4-yl]-6,7-dihydro-5H-pyrrolo[2,3-d]pyrimidin-4-yl}pyrimidin-2-amine hydrochloride] | 6.845 nM | –
18 | C[C@H]1COCCN1c1nc(-c2cnc(N)nc2)c2c(n1)N([C@H]1[C@H]3C[C@@H]1N(C(=O)OC(C)(C)C)C3)CC2 [Example 523, tert-butyl (1S,4S,5S)-5-{4-(2-aminopyrimidin-5-yl)-2-[(3S)-3-methylmorpholin-4-yl]-5,6-dihydro-7H-pyrrolo[2,3-d]pyrimidin-7-yl}-2-azabicyclo[2.1.1]hexane-2-carboxylate] | – | 5.21 nM
19 | C[C@H]1COCCN1c1nc(-c2cnc(N)nc2)c2c(n1)N([C@@H]1[C@@H]3C[C@H]1N(C(=O)OC(C)(C)C)C3)CC2 [Example 524, tert-butyl (1R,4R,5R)-5-{4-(2-aminopyrimidin-5-yl)-2-[(3S)-3-methylmorpholin-4-yl]-5,6-dihydro-7H-pyrrolo[2,3-d]pyrimidin-7-yl}-2-azabicyclo[2.1.1]hexane-2-carboxylate] | – | 1.87 nM
20 | C[C@H]1COCCN1c1nc(-c2cnc(N)nc2)c2c(n1)N([C@H]1[C@@H]3CN[C@H]1C3)CC2 [Example 525, 5-{7-[(1S,4S,5S)-2-azabicyclo[2.1.1]hex-5-yl]-2-[(3S)-3-methylmorpholin-4-yl]-6,7-dihydro-5H-pyrrolo[2,3-d]pyrimidin-4-yl}pyrimidin-2-amine hydrochloride] | – | 4.5 nM
21 | C[C@H]1COCCN1c1nc(-c2cnc(N)nc2)c2c(n1)N([C@@H]1[C@H]3CN[C@@H]1C3)CC2 [Example 526, 5-{7-[(1R,4R,5R)-2-azabicyclo[2.1.1]hex-5-yl]-2-[(3S)-3-methylmorpholin-4-yl]-6,7-dihydro-5H-pyrrolo[2,3-d]pyrimidin-4-yl}pyrimidin-2-amine hydrochloride] | – | 9.43 nM
22 | C[C@H]1COCCN1c1nc(-c2cnc(N)nc2)c2c(n1)N([C@@]13C[C@@H]1CN(C(=O)OC(C)(C)C)C3)CC2 [Example 527, tert-butyl (1S,5R)-1-{4-(2-aminopyrimidin-5-yl)-2-[(3S)-3-methylmorpholin-4-yl]-5,6-dihydro-7H-pyrrolo[2,3-d]pyrimidin-7-yl}-3-azabicyclo[3.1.0]hexane-3-carboxylate] | <0.018 nM | –
23 | C[C@H]1COCCN1c1nc(-c2cnc(N)nc2)c2c(n1)N([C@]13C[C@H]1CN(C(=O)OC(C)(C)C)C3)CC2 [Example 528, tert-butyl (1R,5S)-1-{4-(2-aminopyrimidin-5-yl)-2-[(3S)-3-methylmorpholin-4-yl]-5,6-dihydro-7H-pyrrolo[2,3-d]pyrimidin-7-yl}-3-azabicyclo[3.1.0]hexane-3-carboxylate] | 0.092 nM | –
24 | C[C@H]1COCCN1c1nc(-c2cnc(N)nc2)c2c(n1)N([C@@]13CNC[C@@H]1C3)CC2.Cl [Example 529, 5-{7-[(1R,5S)-3-azabicyclo[3.1.0]hex-1-yl]-2-[(3S)-3-methylmorpholin-4-yl]-6,7-dihydro-5H-pyrrolo[2,3-d]pyrimidin-4-yl}pyrimidin-2-amine hydrochloride] | 0.595 nM | –
25 | C[C@H]1COCCN1c1nc(-c2cnc(N)nc2)c2c(n1)N([C@]13CNC[C@H]1C3)CC2.Cl [Example 530, 5-{7-[(1S,5R)-3-azabicyclo[3.1.0]hex-1-yl]-2-[(3S)-3-methylmorpholin-4-yl]-6,7-dihydro-5H-pyrrolo[2,3-d]pyrimidin-4-yl}pyrimidin-2-amine hydrochloride] | 2.624 nM | –
